Assay results reported in patent US8952024B2, “Herbicidal pyrimidone derivatives” (E I du Pont de Nemours and Company, priority 2009, dated 2015).

Tests used:
Format in all cases: in vivo
[1] = tested on: galium (catchweed bedstraw, Galium aparine); experiment: Test B pre-/postemergence plant response; details: Postemergence
Outline: (§1)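 Plants treated either at seeding (loam/sand soil) or postemergence at 2 to 18 cm height, using a surfactant-containing non-phytotoxic solvent formulation. Evaluation was visual after 13 to 15 days, 0 to 100 scale relative to controls.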

[2] = tested on: giant foxtail (Setaria faberii); experiment: Test B pre-/postemergence plant response; details: Postemergence
Outline: as §1

[3] = tested on: Italian ryegrass (Lolium multiflorum); experiment: Test B pre-/postemergence plant response; details: Postemergence
Outline: as §1

[4] = tested on: ragweed (common ragweed, Ambrosia elatior); experiment: Test B pre-/postemergence plant response; details: Postemergence
Outline: as §1

[5] = tested on: canarygrass (Phalaris minor); experiment: Test B postemergence plant response; details: Postemergence
Outline: (§2)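 Plants at the 1- to 4-leaf stage (2 to 18 cm tall), grown in pots of peat moss/vermiculite medium with wetting agent and starter nutrients, received postemergence applications of test chemicals. After 13 to 15 days in a greenhouse, injury was rated visually against untreated controls on a 0 (no effect) to 100 (complete control) scale.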

[6] = tested on: windgrass (Apera spica-venti); experiment: Test B postemergence plant response; details: Postemergence
Outline: as §2

[7] = tested on: chickweed (Stellaria media); experiment: Test B postemergence plant response; details: Postemergence
Outline: as §2

[8] = tested on: winter barley (Hordeum vulgare); experiment: Test B postemergence plant response; details: for Plant response rating, Barley: Postemergence
Outline: as §2

[9] = tested on: umbrella sedge (Cyperus difformis); experiment: Test B flooded paddy test; details: for Plant response rating, Sedge, Umbrella: Flood (flooded paddy test), 13 to 15 days
Outline: (§3)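 Visual scores run from 0 (no effect) to 100 (complete control), assigned by comparison with controls 13 to 15 days after treatment. Test compounds went straight into water standing 3 cm above the soil, around plants at the 2-leaf stage kept in a greenhouse.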

[10] = tested on: ducksalad (Heteranthera limosa); experiment: Test B flooded paddy test; details: for Plant response rating, Ducksalad: Flood (flooded paddy test), 13 to 15 days
Outline: as §3

rice (Oryza sativa) = experiment: Test B flooded paddy test; details: for Plant response rating, Rice: Flood (flooded paddy test), 13 to 15 days
Outline: as §3

[11] = tested on: barnyardgrass (Echinochloa crus-galli); experiment: Test B flooded paddy test; details: for Plant response rating, Barnyardgrass: Flood (flooded paddy test), 13 to 15 days
Outline: as §3

[12] = 31 g ai/ha, 0 to 100 scale (0 no effect, 100 complete control)
[13] = 125 g ai/ha, scale 0 to 100 (0 no effect, 100 complete control)
[14] = 250 g ai/ha, scale 0 to 100 (0 no effect, 100 complete control), 13 to 15 days
[15] = 250 g ai/ha, flooded paddy test, visual rating on 0 to 100 scale (0 no effect, 100 complete control) after 13 to 15 days
[16] = 62 g ai/ha, scale of 0 to 100 where 0 is no effect and 100 is complete control
[17] = 125 g ai/ha, scale 0 to 100, 0 is no effect, 100 is complete control
[18] = Flood, 31 g ai/ha, scale 0 to 100 (0 no effect, 100 complete control)

## O=C1CCCC(O)=C1C(=O)c1cnc(-c2ccsc2)n(C2CCOCC2)c1=O [Compound 186]
[1]; [12]
  Plant response rating, Galium: 40
[1]; [13]
  Plant response rating, Galium: 70
[1]; [14]
  Plant response rating, Galium: 70
[2]; [12]
  Plant response rating, Foxtail, Giant: 75
[2]; [13]
  Plant response rating, Foxtail, Giant: 95
[2]; [14]
  Plant response rating, Foxtail, Giant: 95
[3]; [12]
  Plant response rating, Ryegrass, Italian: 0
[3]; [13]
  Plant response rating, Ryegrass, Italian: 0
[3]; [14]
  Plant response rating, Ryegrass, Italian: 30
[4]; [12]
  Plant response rating, Ragweed: 85
[4]; [13]
  Plant response rating, Ragweed: 100
[4]; [14]
  Plant response rating, Ragweed: 100
[5]; [12]
  Plant response rating, Canarygrass: 5
[5]; [13]
  Plant response rating, Canarygrass: 40
[5]; [14]
  Plant response rating, Canarygrass: 40
[6]; [12]
  Plant response rating, Windgrass: 10
[6]; [13]
  Plant response rating, Windgrass: 50
[6]; [14]
  Plant response rating, Windgrass: 65
[7]; [12]
  Plant response rating, Chickweed: 95
[7]; [13]
  Plant response rating, Chickweed: 100
[7]; [14]
  Plant response rating, Chickweed: 100
[8]; 62 g ai/ha, postemergence, 0 is no effect, 100 is complete control, 13 to 15 days
  Barley plant response rating (0 to 100 scale): 5
[8]; [12]
  Plant response rating, Barley: 0
[8]; [13]
  Plant response rating, Barley: 5
[8]; [14]
  Plant response rating, Barley: 5
[9]; [15]
  Plant response rating, Flood, Sedge, Umbrella: 90
[9]; [16]
  Plant response rating, Sedge, Umbrella: 80
[9]; [17]
  Plant response rating, Sedge, Umbrella: 80
[9]; [18]
  Sedge, Umbrella plant response rating: 70
[10]; [15]
  Plant response rating, Flood, Ducksalad: 100
[10]; [16]
  Plant response rating, Ducksalad: 90
[10]; [17]
  Plant response rating, Ducksalad: 90
[10]; [18]
  Ducksalad plant response rating: 90
Rice (Oryza sativa); [15]
  Plant response rating, Flood, Rice: 65
Rice (Oryza sativa); [16]
  Plant response rating, Rice: 20
Rice (Oryza sativa); [17]
  Plant response rating, Rice: 45
Rice (Oryza sativa); [18]
  Rice plant response rating: 10
[11]; [15]
  Plant response rating, Flood, Barnyardgrass: 30
[11]; [16]
  Plant response rating, Barnyardgrass: 20
[11]; [17]
  Plant response rating, Barnyardgrass: 30
[11]; [18]
  Barnyardgrass plant response rating: 0
